According to paper PMC9951552 (Science translational medicine, 2022):
Several values for one entry are separate records, joined by “and”; a condition that tells them apart may be missing. Equal entries are not always repeated.

Columns and labels:
in vitro = conditions: human
PfPI3K = conditions: read-out: IC50 PfPI3K; in vitro; cited from earlier work
[1] = test system: control cell line expressing an aptamer-regulatable fluorescent protein; experiment: Susceptibility assay with aptamer-regulatable control line; conditions: low vs high aTc
[2] = biological target: PI3K (Vps34; PF3D7_0515300) (Plasmodium falciparum, UniProt Q8I3V5); experiment: Lipid-Kinobead chemoproteomic competition binding, Pf3D7 ABS extract; conditions: read-out: Kd app for PI3K; Lipid-Kinobeads, N = 1
[3] = biological target: T1, protein kinase 2 (PK2; PF3D7_1238900) (Plasmodium falciparum, UniProt Q8I534); experiment: Kinobead chemoproteomic competition binding, Pf3D7 ABS extract; conditions: read-out: Kd app for PK2; Kinobeads, P. falciparum ABS extract
T1 sequence (Q8I534 1-509): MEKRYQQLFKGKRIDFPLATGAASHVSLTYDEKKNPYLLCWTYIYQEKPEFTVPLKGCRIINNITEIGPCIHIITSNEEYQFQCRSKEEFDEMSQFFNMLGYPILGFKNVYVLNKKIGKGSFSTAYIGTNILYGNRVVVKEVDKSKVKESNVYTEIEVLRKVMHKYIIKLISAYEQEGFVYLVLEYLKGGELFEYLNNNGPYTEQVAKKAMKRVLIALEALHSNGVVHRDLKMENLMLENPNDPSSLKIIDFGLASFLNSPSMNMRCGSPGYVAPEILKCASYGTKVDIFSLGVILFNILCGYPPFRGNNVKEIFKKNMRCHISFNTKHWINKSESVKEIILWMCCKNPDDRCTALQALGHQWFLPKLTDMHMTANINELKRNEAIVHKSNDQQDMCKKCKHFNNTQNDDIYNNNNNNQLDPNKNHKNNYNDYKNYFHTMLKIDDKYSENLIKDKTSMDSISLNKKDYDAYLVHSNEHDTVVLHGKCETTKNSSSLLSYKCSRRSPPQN

Pf3D7 = experiment: P. falciparum NSG mouse model of infection, 4-day test; type: in vivo, Plasmodium falciparum; conditions: day 7, single daily oral dose for four days, NSG mice
[4] = test system: male gamete formation from stage V gametocytes; experiment: Male gamete exflagellation inhibition assay; type: cell-based; conditions: Plasmodium falciparum, 48 h, read-out: inhibition of male gamete formation (EIA)
[5] = biological target: casein kinase 1 (CK1; PF3D7_1136500) (Plasmodium falciparum, UniProt Q8IHZ9); experiment: Kinobead chemoproteomic competition binding, Pf3D7 ABS extract
PfNF54 strain = experiment: In vitro ABS activity against PfNF54 strain; type: cell-based; conditions: Plasmodium falciparum, read-out: in vitro IC50 against PfNF54 strain
[6] = test system: P. berghei ANKA GFP-Luc-SMcon sporozoites; experiment: P. berghei liver stage assay; type: cell-based; conditions: Plasmodium berghei, HepG2, read-out: IC50, inhibition of parasite invasion of HepG2 liver cells (liver stage)
[7] = test system: PI3K (PF3D7_0515300) cKD parasite line; experiment: Susceptibility assay with PI3K conditional knockdown line; conditions: no aTc vs high aTc
[8] = test system: PfNF54 stages II/III gametocytes; experiment: Early-stage gametocytocidal luciferase reporter assay; type: cell-based; conditions: Plasmodium falciparum, read-out: inhibition of early-stage gametocytes
[9] = biological target: T2, cdc2-related protein kinase 5 (CRK5; PF3D7_0615500) (Plasmodium falciparum, UniProt C6KSZ6); experiment: Kinobead chemoproteomic competition binding, Pf3D7 ABS extract; conditions: read-out: Kd app for CRK5; Kinobeads, P. falciparum ABS extract
T2 sequence (C6KSZ6 1-705): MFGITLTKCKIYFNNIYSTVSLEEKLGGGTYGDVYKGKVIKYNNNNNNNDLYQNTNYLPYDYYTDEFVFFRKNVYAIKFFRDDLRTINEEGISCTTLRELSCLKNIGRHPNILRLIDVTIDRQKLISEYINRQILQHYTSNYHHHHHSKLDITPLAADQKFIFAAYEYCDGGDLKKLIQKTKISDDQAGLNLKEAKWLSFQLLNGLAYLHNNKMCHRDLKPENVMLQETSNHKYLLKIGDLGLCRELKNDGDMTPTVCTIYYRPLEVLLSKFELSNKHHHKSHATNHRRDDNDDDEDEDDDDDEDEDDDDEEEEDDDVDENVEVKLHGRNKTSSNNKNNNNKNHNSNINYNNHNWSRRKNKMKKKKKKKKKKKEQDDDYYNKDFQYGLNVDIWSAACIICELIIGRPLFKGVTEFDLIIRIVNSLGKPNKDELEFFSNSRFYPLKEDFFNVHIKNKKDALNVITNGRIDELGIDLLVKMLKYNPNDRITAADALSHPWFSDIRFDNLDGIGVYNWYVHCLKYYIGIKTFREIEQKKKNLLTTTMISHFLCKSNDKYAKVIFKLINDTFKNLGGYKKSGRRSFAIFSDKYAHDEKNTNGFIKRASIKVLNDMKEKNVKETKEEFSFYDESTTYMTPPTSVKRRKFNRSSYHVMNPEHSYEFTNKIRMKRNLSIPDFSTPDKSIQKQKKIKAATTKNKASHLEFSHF

Tolerability = type: in vivo; conditions: 10 mg/kg oral once daily, both animals
[10] = test system: PKG (PF3D7_1436600) cKD parasite line; experiment: Susceptibility assay with PKG conditional knockdown line; conditions: low aTc (2 nM) vs high aTc
[11] = test system: PfNF54 stage V gametocytes; experiment: Standard membrane feeding assay; parameters: species or system Plasmodium falciparum; conditions: 2 μM, stage V gametocytes incubated 48 hours before feeding; mean ±SD
PI4Kβ (PF3D7_0509800) = PI4Kβ (PF3D7_0509800) (Plasmodium falciparum, UniProt Q8I406); experiment: Kinobead chemoproteomic competition binding, Pf3D7 ABS extract; conditions: read-out: Kd app for PI4Kβ; Kinobeads, P. falciparum ABS extract
[12] = Whole-blood pharmacokinetics in NSG mouse efficacy study, LC-MS/MS; type: in vivo, NSG mice
Pf3D7 trophozoites = experiment: Metabolomic perturbation profiling by LC-MS; type: cell-based, Plasmodium falciparum; conditions: 10-fold the IC50 for 2.5 hours, vs no-drug control
[13] = test system: PfNF54 stage IV/V gametocytes; experiment: Late-stage gametocytocidal luciferase reporter assay; type: cell-based; conditions: Plasmodium falciparum, 48 h, read-out: IC50, viability of late-stage gametocytes

Chain of PI3K (Vps34; PF3D7_0515300) (Q8I3V5 1-2133): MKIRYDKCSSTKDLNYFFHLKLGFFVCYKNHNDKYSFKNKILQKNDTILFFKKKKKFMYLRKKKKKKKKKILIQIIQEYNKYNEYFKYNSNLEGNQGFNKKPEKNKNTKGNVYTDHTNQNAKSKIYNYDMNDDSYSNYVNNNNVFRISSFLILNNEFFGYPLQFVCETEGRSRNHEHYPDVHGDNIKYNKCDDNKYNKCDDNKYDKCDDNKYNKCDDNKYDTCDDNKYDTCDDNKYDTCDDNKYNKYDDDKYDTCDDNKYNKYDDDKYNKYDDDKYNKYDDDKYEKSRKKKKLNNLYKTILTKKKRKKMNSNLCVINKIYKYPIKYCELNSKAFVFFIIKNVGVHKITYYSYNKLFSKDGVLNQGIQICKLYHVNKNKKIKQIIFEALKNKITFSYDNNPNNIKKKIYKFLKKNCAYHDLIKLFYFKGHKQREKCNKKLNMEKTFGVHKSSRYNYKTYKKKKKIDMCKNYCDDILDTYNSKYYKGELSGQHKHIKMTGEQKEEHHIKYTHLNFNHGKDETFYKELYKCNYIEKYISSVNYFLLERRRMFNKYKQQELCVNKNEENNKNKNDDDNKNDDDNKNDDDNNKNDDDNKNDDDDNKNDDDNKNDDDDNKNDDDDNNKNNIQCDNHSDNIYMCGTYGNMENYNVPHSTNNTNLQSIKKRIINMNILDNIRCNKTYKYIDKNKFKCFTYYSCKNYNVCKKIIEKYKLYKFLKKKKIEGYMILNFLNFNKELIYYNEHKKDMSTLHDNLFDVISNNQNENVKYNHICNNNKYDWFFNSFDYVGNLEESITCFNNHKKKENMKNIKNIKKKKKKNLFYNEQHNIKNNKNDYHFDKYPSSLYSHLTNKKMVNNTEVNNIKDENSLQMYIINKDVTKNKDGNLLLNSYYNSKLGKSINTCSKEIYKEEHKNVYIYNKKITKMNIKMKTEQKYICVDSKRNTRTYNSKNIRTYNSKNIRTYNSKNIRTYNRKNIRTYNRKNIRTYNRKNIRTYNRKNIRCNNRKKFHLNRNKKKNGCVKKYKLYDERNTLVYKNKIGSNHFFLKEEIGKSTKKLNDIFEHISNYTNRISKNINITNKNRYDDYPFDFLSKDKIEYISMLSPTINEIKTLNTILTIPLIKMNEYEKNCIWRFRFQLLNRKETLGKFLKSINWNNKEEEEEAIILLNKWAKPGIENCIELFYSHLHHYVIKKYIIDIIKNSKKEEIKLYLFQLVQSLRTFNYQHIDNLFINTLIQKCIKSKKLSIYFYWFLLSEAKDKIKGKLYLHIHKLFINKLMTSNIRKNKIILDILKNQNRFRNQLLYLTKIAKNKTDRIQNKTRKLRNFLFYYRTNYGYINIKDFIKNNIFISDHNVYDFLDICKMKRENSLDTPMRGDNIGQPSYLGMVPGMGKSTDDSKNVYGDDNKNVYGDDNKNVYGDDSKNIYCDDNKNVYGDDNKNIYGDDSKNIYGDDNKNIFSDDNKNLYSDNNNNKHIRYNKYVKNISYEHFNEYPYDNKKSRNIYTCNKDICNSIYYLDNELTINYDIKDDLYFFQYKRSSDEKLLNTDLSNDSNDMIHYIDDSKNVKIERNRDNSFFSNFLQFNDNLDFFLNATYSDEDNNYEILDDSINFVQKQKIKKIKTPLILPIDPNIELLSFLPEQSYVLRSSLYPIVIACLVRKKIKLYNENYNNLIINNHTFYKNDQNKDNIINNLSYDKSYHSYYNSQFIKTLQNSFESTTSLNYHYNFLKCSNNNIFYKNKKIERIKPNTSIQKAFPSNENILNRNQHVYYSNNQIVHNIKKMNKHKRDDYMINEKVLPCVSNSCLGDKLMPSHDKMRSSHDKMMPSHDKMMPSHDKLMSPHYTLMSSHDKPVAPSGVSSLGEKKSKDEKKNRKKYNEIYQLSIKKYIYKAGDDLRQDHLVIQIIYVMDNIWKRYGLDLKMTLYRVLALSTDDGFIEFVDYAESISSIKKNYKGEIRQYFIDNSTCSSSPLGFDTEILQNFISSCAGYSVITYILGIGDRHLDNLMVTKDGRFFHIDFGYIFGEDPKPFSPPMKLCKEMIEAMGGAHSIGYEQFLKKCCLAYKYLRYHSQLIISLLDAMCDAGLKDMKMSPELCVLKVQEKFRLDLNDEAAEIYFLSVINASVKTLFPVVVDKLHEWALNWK
Chain of casein kinase 1 (CK1; PF3D7_1136500) (Q8IHZ9 whole entry): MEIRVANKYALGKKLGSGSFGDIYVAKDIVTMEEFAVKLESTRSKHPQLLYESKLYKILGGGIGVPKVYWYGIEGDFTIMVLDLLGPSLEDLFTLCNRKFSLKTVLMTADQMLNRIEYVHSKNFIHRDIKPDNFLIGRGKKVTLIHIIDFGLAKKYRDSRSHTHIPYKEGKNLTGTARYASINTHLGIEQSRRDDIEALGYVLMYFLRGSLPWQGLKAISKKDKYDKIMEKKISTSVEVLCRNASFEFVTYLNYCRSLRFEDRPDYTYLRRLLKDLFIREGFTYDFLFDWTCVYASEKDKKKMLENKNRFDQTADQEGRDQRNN
Chain of PI4Kβ (PF3D7_0509800) (Q8I406 1-1559): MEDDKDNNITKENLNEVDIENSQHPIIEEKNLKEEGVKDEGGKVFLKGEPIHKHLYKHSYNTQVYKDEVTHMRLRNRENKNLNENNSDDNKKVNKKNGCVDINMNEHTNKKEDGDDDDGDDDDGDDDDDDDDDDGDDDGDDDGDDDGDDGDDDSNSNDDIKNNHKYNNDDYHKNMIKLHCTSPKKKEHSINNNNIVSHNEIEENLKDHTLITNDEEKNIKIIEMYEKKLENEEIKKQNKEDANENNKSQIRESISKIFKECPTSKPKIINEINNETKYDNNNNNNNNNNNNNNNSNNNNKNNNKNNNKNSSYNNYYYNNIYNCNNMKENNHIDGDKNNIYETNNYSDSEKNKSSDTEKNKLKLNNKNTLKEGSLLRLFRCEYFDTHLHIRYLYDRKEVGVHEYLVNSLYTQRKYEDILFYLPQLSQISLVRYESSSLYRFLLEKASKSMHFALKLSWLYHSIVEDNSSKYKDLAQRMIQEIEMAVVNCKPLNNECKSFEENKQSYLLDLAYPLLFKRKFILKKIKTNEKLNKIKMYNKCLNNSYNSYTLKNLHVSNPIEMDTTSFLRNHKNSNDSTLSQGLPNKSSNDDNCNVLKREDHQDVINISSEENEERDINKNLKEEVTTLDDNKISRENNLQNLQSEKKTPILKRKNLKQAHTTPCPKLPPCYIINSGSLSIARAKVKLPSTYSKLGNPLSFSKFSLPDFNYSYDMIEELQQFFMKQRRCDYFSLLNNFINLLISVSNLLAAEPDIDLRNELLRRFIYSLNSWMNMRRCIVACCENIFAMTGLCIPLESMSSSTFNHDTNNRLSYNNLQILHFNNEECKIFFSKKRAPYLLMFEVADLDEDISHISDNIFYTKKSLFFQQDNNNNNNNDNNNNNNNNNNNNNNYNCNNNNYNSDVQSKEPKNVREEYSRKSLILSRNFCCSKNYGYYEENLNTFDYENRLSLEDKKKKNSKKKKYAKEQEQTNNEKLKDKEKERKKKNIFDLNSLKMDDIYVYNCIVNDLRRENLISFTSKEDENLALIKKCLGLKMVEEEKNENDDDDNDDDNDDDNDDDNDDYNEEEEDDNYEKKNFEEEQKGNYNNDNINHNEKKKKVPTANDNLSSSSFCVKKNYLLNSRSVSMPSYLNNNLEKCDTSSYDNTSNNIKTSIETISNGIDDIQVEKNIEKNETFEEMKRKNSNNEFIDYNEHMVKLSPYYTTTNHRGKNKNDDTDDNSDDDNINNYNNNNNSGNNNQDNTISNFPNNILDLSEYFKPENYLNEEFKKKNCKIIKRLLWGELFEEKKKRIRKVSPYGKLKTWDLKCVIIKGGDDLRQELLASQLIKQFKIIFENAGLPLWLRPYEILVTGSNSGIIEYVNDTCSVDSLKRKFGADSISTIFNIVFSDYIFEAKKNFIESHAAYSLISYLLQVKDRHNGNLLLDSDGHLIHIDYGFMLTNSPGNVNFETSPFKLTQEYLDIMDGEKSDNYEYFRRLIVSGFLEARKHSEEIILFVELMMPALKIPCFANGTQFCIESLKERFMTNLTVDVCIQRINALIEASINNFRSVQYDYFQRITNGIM

In the case of `COc1ccc(C[C@H](N)C(=O)N[C@H]2[C@@H](O)[C@H](n3cnc4c(N(C)C)ncnc43)O[C@@H]2CO)cc1` [Puromycin], the IC50 (in vitro) is reported as 588 ± 3 nM.
For `Nc1ccc(-c2ccc3ncc4ccc(=O)n(-c5cccc(C(F)(F)F)c5)c4c3c2)cn1` [Torin-2], the IC50 (PfPI3K) is given as 0.6 nM.
In the case of `CC(C)n1nc(-c2ccc3oc(N)nc3c2)c2c(N)ncnc21` [sapanisertib], the “differential susceptibility, aptamer-regulatable control line” value [1] is reported as “did not reveal differential susceptibility”, the Kd [2] is reported as ≤ 50 nM and 50 nM and the Kd [3] is reported as under 1000 nM. The “ED90 (dose reducing parasitemia by 90% vs untreated control)” value (Pf3D7) was 0.88 mg/kg, the inhibition at 2 µM [4] was 89% and the Kd [5] was under 1000 nM. For the same compound, the IC50 (PfNF54 strain) was 58 nM and 0.018 µg/mL, the IC50 [6] was 134 nM and the “differential susceptibility on PI3K knockdown” value [7] was “did not reveal differential susceptibility”. The inhibition at 5 µM [8] was 30%, the Kd [9] was under 1000 nM and the “weight loss (humane end point reached before day 7)” value (Tolerability) was at least 15%. The “differential susceptibility on PKG knockdown” value [10] was “did not reveal differential susceptibility”, the “transmission-reducing activity (TRA), reduction in mean oocyst formation” value [11] was 54% and the Kd (PI4Kβ (PF3D7_0509800)) was at most 50 nM. The “whole-blood exposure level (below lowest limit of quantification)” value ([12]; 0.05 mg/kg oral) was under 1 ng/mL, the “whole-blood exposure level (below lowest limit of quantification)” value ([12]; 0.1 mg/kg oral) was under 1 ng/mL and the “effect on hemoglobin-derived peptide levels” value (Pf3D7 trophozoites) was “disruption and reduction”. The IC50 [13] was 538 nM.
